From patent US7125671B2, “Nucleic acid amplification with terminal-phosphate labeled nucleotides” (GE Healthcare Bio-Sciences Corp., priority 2003, dated 2006)

How the values were obtained:
T. ba polymerase = test: PCR amplification with terminal-phosphate labeled nucleoside polyphosphates in the presence of stabilizing additives (FIG. 6); assay type: biochemical, Thermococcus barosii; conditions: 10–25 mM salt; dA4P-Me, dT4P-Me, dC4P-Me, dG4P-FlEt; 0.25 mM MnCl2; M13 DNA; 35 cycles
Procedure: Polymerase chain reaction (PCR) mixtures (20 μl) contained 25 mM Hepes (pH 8.1), 10 mM KCl, 2 mM MgSO4, 0.25 mM MnCl2, 1 mg/ml bovine serum albumin, 0.01% (v/v) Tween-20 and 10–25 mM salt as shown in FIG. 6. Each sample also contained 20 μm each of dA4P-Me, dT4P-Me, dC4P-Me, 200 μm dG4P-FlEt, 0.006 units/μl BAP, 2 units of T. ba polymerase, 0.1 μm −40 M13 forward primer, 0.1 μm −28 M13 reverse primer and 0.2 ng M13 DNA. In addition to the terminal-phosphate labeled nucleotide, terminal methyl-blocked dNTP's were used instead of normal dNTP's to prevent degradation by BAP (phosphatase). Latter is required for signal generation from dye-polyphosphate after the nucleotide is incorporated into DNA by polymerase. Reactions were carried out for 35 thermal cycles of 90° C., 30 sec.; 55° C., 30 sec.; and 65° C., 300 sec. Reaction products were loaded onto 1.6% agarose gels. The gels were stained with SYBR Gold (Molecular Probes) according to the manufacturers' instructions and scanned at 532 nm using a Typhoon fluorescence scanner (Amersham Biosciences). Gel size markers were a 100 bp ladder (Amersham Biosciences).

[1] = Non-enzymatic hydrolysis of terminal-phosphate labeled nucleoside polyphosphate on thermal cycling, effect of glycerol; assay type: physicochemical; conditions: 5% glycerol; high temperatures
Procedure: Seventy μl samples containing 50 mM Hepes, pH 8.0, 5 mM MgCl2, 0.5 mM MnCl2, 0.01% Tween-20, 1 μm ddT4P-EtFl, 100 nM primer/template, 0.0036 units/μl SAP with or without 5% glycerol were cycled as follows: 95° C., 30 sec and 50° C., 3 min, repeat 10 times. Amount of free dye formed was checked in a fluorimeter.

pUC18 DNA = test: PCR with additional nucleotides, template and primers (FIG. 3); assay type: biochemical; conditions: labeled nucleotide replaces the normal dNTP; 0.2 mM MnCl2; −21 Forward and −28 Reverse primers
Procedure: (§1) Polymerase chain reaction (PCR) mixtures (20 μl) contained 20 mM Tris-HCL (pH 8.75), 10 mM KCL, 10 mM (NH4)2SO4, 2 mM MgSO4, 1 mg/ml bovine serum albumin and 0.1% (v/v) Triton X-100. The final nucleotide concentrations were 20 μM each, and 2.5 units of the DNA polymerase were used for each reaction. The initial template DNA (1–5 ng) was either pUC18 or pUCp53 (Amersham Biosciences). The initial amount of primer was 2 μmol each, and 2.5 units of the indicated DNA polymerase was used. Reactions were carried out for 15 thermal cycles of 90° C., 30 sec.; 55° C., 60 sec.; and 72° C., 300 sec. Most PCR reactions also included MnCl2 at a final concentration of 0.08–0.2 mM. Reaction products were loaded onto 1.6% agarose gels. The gels were stained with SYBR Gold (Molecular Probes) according to the manufacturers' instructions and scanned at 532 nm using a Typhoon fluorescence scanner (Amersham Biosciences). Gel size markers were a 100 bp ladder (Amersham Biosciences).
(§2) For both figures, the amplification reaction loaded in lane 1 was performed with normal dNTPs and without MnCl2. For the lanes marked 2, the dTTP was replaced by dT4P-DDAO and the reactions contained 0.2 mM MnCl2. For the lanes marked 3, the dGTP was replaced by dG4P-DDAO, and for the lanes marked 4, the dGTP was replaced by dG4P-MeCoumarin again with 0.2 mM MnCl2.

pUCp53 DNA = test: PCR with additional nucleotides (FIG. 2); assay type: biochemical; conditions: labeled nucleotide replaces the normal dNTP; 0.2 mM MnCl2; primers P53SNP22C-51F and P53SNP22G131R
Procedure: as §1, §2

KOD XL DNA polymerase = test: PCR amplification of pUCp53 target with terminal-phosphate labeled nucleotide; assay type: biochemical; conditions: same conditions as FIG. 1, DDAO-dT4P replaced dTTP
Procedure: as §1
(§3) The DNA polymerases used for these experiments included Taq DNA polymerase, Thermo Sequenase DNA polymerase (Amersham Biosciences), Tba exo-DNA polymerase (from Thermococcus barosii, U.S. Pat. No. 5,602,011 with D141A and E143A amino acid substitutions U.S. Pat. No. 5,882,904), Pfu DNA polymerase (Strategene), KOD XL DNA polymerase (Novagen) and Deep Vent DNA polymerase (New England BioLabs). […]

Pfu DNA polymerase = biological target: T1, Pfu DNA polymerase (Pyrococcus furiosus, UniProt P61875); test: as above; assay type: biochemical; conditions: same conditions as FIG. 1, DDAO-dT4P replaced dTTP
T1 construct: purchased Strategene (so in the source); Stratagene)
T1 sequence (P61875 1-775): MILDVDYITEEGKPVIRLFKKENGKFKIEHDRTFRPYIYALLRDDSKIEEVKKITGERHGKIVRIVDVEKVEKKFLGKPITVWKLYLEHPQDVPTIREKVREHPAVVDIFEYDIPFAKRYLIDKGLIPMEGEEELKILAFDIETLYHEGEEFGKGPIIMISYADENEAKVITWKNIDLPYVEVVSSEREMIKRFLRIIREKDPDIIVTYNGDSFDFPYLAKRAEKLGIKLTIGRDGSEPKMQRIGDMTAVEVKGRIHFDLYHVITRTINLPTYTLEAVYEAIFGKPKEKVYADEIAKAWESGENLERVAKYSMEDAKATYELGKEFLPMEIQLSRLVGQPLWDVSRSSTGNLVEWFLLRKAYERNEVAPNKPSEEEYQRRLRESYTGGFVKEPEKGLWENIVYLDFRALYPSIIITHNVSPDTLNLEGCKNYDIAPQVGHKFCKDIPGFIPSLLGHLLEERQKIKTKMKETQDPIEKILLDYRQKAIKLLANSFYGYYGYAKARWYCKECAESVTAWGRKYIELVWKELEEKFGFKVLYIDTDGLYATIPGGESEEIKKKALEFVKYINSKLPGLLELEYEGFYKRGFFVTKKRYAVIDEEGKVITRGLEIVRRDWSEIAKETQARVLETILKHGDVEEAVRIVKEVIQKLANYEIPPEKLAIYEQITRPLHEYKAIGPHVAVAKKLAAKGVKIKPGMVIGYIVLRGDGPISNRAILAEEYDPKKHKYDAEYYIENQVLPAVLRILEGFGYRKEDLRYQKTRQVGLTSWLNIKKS
Procedure: as §1, §3

Phi29 DNA polymerase = biological target: T2, Phi29 DNA polymerase (Bacillus phage phi29, UniProt P03680); test: Rolling circle amplification of salmon sperm chromosomal DNA with terminal-phosphate labeled/blocked nucleoside polyphosphates; assay type: biochemical; conditions: 50 μm dT4P-DDAO with dA4P-Me, dG4P-Me, dC4P-Me, BAP, 30° C.
T2 sequence (P03680 1-575): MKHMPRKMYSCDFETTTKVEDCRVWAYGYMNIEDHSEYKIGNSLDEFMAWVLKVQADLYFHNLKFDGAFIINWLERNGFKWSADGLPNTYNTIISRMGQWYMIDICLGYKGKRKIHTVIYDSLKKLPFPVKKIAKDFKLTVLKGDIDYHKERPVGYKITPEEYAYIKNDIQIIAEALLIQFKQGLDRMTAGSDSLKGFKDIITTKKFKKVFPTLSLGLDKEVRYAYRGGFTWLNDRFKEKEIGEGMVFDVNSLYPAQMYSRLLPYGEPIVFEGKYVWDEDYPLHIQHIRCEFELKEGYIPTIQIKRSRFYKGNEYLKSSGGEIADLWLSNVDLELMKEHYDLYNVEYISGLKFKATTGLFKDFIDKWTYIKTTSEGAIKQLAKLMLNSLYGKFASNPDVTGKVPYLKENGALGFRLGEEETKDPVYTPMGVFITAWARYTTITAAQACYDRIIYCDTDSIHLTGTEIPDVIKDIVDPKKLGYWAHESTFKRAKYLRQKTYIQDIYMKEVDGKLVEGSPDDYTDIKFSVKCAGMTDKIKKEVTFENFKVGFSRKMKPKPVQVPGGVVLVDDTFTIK
Procedure: Varying amounts of denatured salmon sperm chromosomal DNA was taken in 25 mM Tris: borate buffer, pH 8.0, containing 5 mM ammonium sulfate, 75 mM NaCl, 5 mM MgCl2, 1 mM MnSO4, 0.01% Tween-20, 400 ng Phi29 DNA polymerase, 40 μm nuclease resistant random hexamers, 0.03 units of BAP and 50 μm each of dA4P-Me, dG4P-Me, dC4P-Me and dT4P-DDAO. Reactions were incubated at 30° C. in a Tecan fluorescent plate reader and were read every five minutes at excitation and emission wavelengths optimized for DDAO. Raw fluorescence counts are plotted as a function of time.

Taq DNA polymerase = Taq DNA polymerase (Thermus aquaticus, UniProt P19821); test: PCR amplification of pUCp53 target with terminal-phosphate labeled nucleotide, gel and fluorescence detection; assay type: biochemical; conditions: lane 2 of FIG. 1, 0.2 mM MnCl2
Chain of Taq DNA polymerase (P19821 whole entry): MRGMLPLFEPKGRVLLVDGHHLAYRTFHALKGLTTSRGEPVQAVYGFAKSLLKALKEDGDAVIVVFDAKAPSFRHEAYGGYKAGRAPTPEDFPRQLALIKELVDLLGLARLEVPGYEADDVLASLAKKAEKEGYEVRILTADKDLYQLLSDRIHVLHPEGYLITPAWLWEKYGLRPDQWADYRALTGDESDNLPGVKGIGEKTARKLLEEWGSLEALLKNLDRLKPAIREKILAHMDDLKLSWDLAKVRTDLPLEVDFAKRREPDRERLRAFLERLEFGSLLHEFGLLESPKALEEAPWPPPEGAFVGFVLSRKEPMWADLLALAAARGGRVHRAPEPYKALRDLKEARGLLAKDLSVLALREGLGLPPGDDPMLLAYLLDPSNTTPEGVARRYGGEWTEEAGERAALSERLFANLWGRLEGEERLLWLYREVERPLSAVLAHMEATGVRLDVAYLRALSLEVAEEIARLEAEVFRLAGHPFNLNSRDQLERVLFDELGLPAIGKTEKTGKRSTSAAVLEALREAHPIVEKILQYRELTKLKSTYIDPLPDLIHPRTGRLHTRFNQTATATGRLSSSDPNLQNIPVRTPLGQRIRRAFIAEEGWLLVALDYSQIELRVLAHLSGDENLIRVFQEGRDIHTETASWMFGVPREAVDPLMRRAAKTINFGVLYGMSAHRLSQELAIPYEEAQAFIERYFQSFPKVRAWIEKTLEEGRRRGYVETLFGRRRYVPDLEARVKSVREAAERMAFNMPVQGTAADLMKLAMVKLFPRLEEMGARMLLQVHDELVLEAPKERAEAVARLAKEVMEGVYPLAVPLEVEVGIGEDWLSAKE
Procedure: Polymerase chain reaction (PCR) mixtures (20 μl) contained 20 mM Tris-HCL (pH 8.75), 10 mM KCL, 10 mM (NH4)2SO4, 2 mM MgSO4, 1 mg/ml bovine serum albumin and 0.1% (v/v) Triton X-100. The final nucleotide concentrations were 20 μM each, and 2.5 units of the DNA polymerase were used for each reaction. The initial template DNA (1–5 ng) was either pUC18 or pUCp53 (Amersham Biosciences). The initial amount of primer was 2 μmol each, and 2.5 units of the indicated DNA polymerase was used. Reactions were carried out for 15 thermal cycles of 90° C., 30 sec.; 55° C., 60 sec.; and 72° C., 300 sec. Most PCR reactions also included MnCl2 at a final concentration of 0.08–0.2 mM. Reaction products were loaded onto 1.6% agarose gels. The gels were stained with SYBR Gold (Molecular Probes) according to the manufacturers' instructions and scanned at 532 nm using a Typhoon fluorescence scanner (Amersham Biosciences). Gel size markers were a 100 bp ladder (Amersham Biosciences). […]
(§4) Then the fluorescence was determined using a FarCYte fluorescence plate reader (Amersham Biosciences) using 650 nm excitation and 670 nm emission. […] The reaction product of Tba exo-DNA polymerase gave a reading of 31,000 fluorescence units.

Tba exo-DNA polymerase = test: as above; assay type: biochemical, Thermococcus barosii
Procedure: as §1
The DNA polymerases used for these experiments included Taq DNA polymerase, Thermo Sequenase DNA polymerase (Amersham Biosciences), Tba exo-DNA polymerase (from Thermococcus barosii, U.S. Pat. No. 5,602,011 with D141A and E143A amino acid substitutions U.S. Pat. No. 5,882,904), Pfu DNA polymerase (Strategene), KOD XL DNA polymerase (Novagen) and Deep Vent DNA polymerase (New England BioLabs).
For this experiment, either Taq DNA polymerase (lanes 1–3, 12), Thermo Sequenase (Amersham Biosciences) DNA polymerase (lanes 7–9, 11) or Tba exo-DNA polymerase (lanes 4–6, 10) were used. The MnCl2 concentration was 0 mM for the reactions resolved in lanes 1, 4, 7 and 10–12; 0.2 mM in lanes 2, 5, and 8; 0.4 mM in lanes 3, 6 and 9. For all samples, the template DNA was pUCp53 and the primers were P53SNP22C-51F and P53SNP22G131R. […]
as §4

In the case of `[Na+].[Na+].[O]=[Mo](=[O])([O-])[O-]` [sodium molybdate], the “PCR product formation in the presence of the additive” value (T. ba polymerase) is reported as “PCR product was separated”.
In the case of `OCC(O)CO` [glycerol], the “effect of additive on degradation of ddT4P-EtFl caused by manganese” value [1] is reported as “reduces the amount of degradation caused by manganese”.
For `Cc1cc(=O)oc2cc(OP(=O)(O)OP(=O)(O)OP(=O)(O)OP(=O)(O)OC[C@H]3O[C@@H](n4cnc5c(=O)[nH]c(N)nc54)C[C@@H]3O)ccc12` [dG4P-MeCoumarin, 2′-Deoxyguanosine-5′-(δ-7-(4-methylumbelliferone)) tetraphosphate], the “PCR amplification product on gel” value (pUC18 DNA) was “successfully produced product of the expected size” and the “PCR amplification product on gel” value (pUCp53 DNA) was “successfully produced product of the expected size”.
For `CC1(C)C2=C(Cl)C(=O)C(Cl)=CC2=Nc2ccc(OP(=O)(O)OP(=O)(O)OP(=O)(O)OP(=O)(O)OC[C@H]3OC(n4cnc5c(=O)[nH]c(N)nc54)CC3O)cc21` (some centres unmarked) [dG4P-DDAO, δ-9H(1,3-dichloro-9,9-dimethylacridin-2-one-7-yl)-deoxyguanosine-5′-tetraphosphate], the “PCR amplification product on gel” value (pUC18 DNA) was “successfully produced product of the expected size” and the “PCR amplification product on gel” value (pUCp53 DNA) was “successfully produced product of the expected size”.
With `Cc1cn([C@H]2CC(O)[C@@H](COP(=O)(O)OP(=O)(O)OP(=O)(O)OP(=O)(O)Oc3ccc4c(c3)C(C)(C)C3=C(Cl)C(=O)C(Cl)=CC3=N4)O2)c(=O)[nH]c1=O` (some centres unmarked) [dT4P-DDAO, δ-9H(1,3-dichloro-9,9-dimethylacridin-2-one-7-yl)-deoxythymidine-5′-tetraphosphate] the “PCR amplification product on gel” value (pUC18 DNA) was “successfully produced product of the expected size”, the PCR product (KOD XL DNA polymerase) was “PCR product is made” and the PCR product (Pfu DNA polymerase) was “PCR product is made”. The “PCR amplification product on gel” value (pUCp53 DNA) was “successfully produced product of the expected size”, the “rate of product formation (slope 20–40 minutes) versus amount of input DNA” value (Phi29 DNA polymerase; FIG. 10) was “linear correlation” and the fluorescence signal (Phi29 DNA polymerase; absence of input DNA, FIG. 9) was “no signal is produced”. For the same compound, the PCR product (Taq DNA polymerase; DDAO-dT4P replaced dTTP) was “little or no detectable PCR product”, the “fluorescence reading of PCR reaction product after shrimp alkaline phosphatase” value (Taq DNA polymerase; 650 nm excitation, 670 nm emission) was 5500 fluorescence units and the “increase of PCR yield in the presence of MnCl2” value (Tba exo-DNA polymerase; 0.2–0.4 mM MnCl2 versus 0 mM, DDAO-dT4P replaced dTTP) was “at least 5 fold”. The “PCR product on agarose gel” value (Tba exo-DNA polymerase; DDAO-dT4P replaced dTTP, pUCp53 template, 15 thermal cycles, FIG. 1) was “significant amounts of PCR product were made” and the “fluorescence reading of PCR reaction product after shrimp alkaline phosphatase” value (Tba exo-DNA polymerase; lane 5 of FIG. 1, 0.2 mM MnCl2, 650 nm excitation, 670 nm emission) was 31,000 fluorescence units.
